Source: US7829728B2, “Diarymethyl and related compounds” (Theravance, Inc., priority 2003, dated 2010)

System: guinea pigs, pilocarpine-evoked salivation
Experiment: Inhalation guinea pig salivation assay (Assay Test Procedure H)
Assay type: in vivo
Conditions: ratio of anti-sialagogue ID50 to bronchoprotective ID50, guinea pig
Description: Guinea pigs (Charles River, Wilmington, Mass.) weighing 200-350 g are acclimated to the in-house guinea pig colony for at least 3 days following arrival. Test compound or vehicle are dosed via inhalation (IH) over a 10 minute time period in a pie shaped dosing chamber (R+S Molds, San Carlos, Calif.). Test solutions are dissolved in sterile water and delivered using a nebulizer filled with 5.0 mL of dosing solution. Guinea pigs are restrained in the inhalation chamber for 30 minutes. During this time, guinea pigs are restricted to an area of approximately 110 sq. cm. This space is adequate for the animals to turn freely, reposition themselves, and allow for grooming. […] Upon completion of nebulization, guinea pigs are evaluated at 1.5, 6, 12, 24, 48, or 72 hrs after treatment.
Guinea pigs are anesthetized one hour before testing with an intramuscular (IM) injection of a mixture of ketamine 43.75 mg/kg, xylazine 3.5 mg/kg, and acepromazine 1.05 mg/kg at an 0.88 mL/kg volume. […] Saliva is collected for 10 minutes, at which point the gauze pad is weighed and the difference in weight recorded to determine the amount of accumulated saliva (in mg). The mean amount of saliva collected for animals receiving the vehicle and each dose of test compound is calculated. […] Results are calculated using result means (n=3 or greater). […]

## NC(=O)C(c1ccccc1)(c1ccccc1)[C@@H]1CCN(CCC(=O)NCCCCCNC[C@H](O)c2ccc(O)c3[nH]c(=O)ccc23)C1 [Example 3, 3-[(S)-3-(Carbamoyldiphenylmethyl)pyrrolidin-1-yl]-N-{5-[(R)-2-hydroxy-2-(8-hydroxy-2-oxo-1,2-dihydroquinolin-5-yl)ethylamino]pentyl}propionamide]
  apparent lung-selectivity index: greater than 5
